In ChEMBL document CHEMBL1201862, “PubChem BioAssay data set” (2004):
Calls of active or inactive are those of the source.

Legend:
P388/ADR = assay: cells; format: functional; settings: Mus musculus
P388 = assay: cells; format: functional; settings: Mus musculus
SN12K1 = assay: cells; format: functional; settings: Homo sapiens
[1] = target: T1, Ubiquitin-conjugating enzyme E2 N (Homo sapiens, UniProt P61088); format: functional;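 also: Dose-response confirmation in a TR-FRET assay detecting UBC13-driven polyubiquitin chain formation, inhibition measured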
T1 sequence (P61088 whole entry): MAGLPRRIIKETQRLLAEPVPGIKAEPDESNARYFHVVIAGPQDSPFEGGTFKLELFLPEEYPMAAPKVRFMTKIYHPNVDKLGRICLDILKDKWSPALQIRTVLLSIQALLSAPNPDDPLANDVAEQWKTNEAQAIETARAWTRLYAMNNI

[2] = target: T2, Corticotropin-releasing factor receptor 2/Corticotropin-releasing factor-binding protein (Homo sapiens, UniProt P24387+Q13324); assay: Dose Response confirmation of uHTS hits for small molecule antagonists of the CRF-binding protein and CRF-R2 receptor complex.; format: functional; settings: read-out: IC50_Mean
T2 sequence (Q13324 whole entry): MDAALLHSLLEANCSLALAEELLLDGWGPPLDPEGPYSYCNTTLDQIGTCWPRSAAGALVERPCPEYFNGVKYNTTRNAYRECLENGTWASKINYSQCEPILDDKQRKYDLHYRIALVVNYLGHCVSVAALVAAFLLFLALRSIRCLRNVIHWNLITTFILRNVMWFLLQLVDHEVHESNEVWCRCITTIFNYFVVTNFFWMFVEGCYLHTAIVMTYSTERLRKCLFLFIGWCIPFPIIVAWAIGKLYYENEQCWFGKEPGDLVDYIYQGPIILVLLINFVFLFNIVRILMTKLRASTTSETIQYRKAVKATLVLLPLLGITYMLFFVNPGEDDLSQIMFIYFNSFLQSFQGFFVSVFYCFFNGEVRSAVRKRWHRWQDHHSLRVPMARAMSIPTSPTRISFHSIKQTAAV
T2 sequence (P24387 whole entry): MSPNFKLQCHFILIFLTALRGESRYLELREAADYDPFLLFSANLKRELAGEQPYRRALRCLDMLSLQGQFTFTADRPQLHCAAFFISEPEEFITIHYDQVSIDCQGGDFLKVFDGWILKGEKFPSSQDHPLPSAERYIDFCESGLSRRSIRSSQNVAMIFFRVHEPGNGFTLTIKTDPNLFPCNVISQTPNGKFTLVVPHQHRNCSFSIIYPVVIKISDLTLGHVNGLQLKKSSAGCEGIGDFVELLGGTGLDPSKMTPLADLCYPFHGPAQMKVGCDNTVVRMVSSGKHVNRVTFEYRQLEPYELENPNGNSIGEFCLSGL

[3] = target: T2, Corticotropin-releasing factor receptor 2/Corticotropin-releasing factor-binding protein; assay: activators of CRF receptor 2 with binding protein – uHTS hits, confirmation (AID 602473); format: functional; settings: read-out: EC50_Mean
[4] = growth suppression of beta-catenin-knockout colon cells, dose response, cell-based, HCT116, human colon tumor (AID 1045); format: functional;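 also: HCT116 colon tumor cells with beta catenin knocked out; cells exposed to compound for 60 hours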
[5] = growth suppression of PTEN-null colon cells, dose response, cell-based, HCT116 PTEN knockout (AID 1047); format: functional;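 also: HCT116 colon tumor cells with PTEN knocked out; cells exposed to compound for 60 hours before readout; potency for loss of cell viability measured by luminescence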
Cytochrome P450 2C9 = Cytochrome P450 2C9 (Homo sapiens, UniProt P11712)
Cytochrome P450 1A2 = target: T3, Cytochrome P450 1A2 (Homo sapiens, UniProt P05177);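 also: PubChem cytochrome P450 panel assay, CYP1A2 panel member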
T3 sequence (P05177 whole entry): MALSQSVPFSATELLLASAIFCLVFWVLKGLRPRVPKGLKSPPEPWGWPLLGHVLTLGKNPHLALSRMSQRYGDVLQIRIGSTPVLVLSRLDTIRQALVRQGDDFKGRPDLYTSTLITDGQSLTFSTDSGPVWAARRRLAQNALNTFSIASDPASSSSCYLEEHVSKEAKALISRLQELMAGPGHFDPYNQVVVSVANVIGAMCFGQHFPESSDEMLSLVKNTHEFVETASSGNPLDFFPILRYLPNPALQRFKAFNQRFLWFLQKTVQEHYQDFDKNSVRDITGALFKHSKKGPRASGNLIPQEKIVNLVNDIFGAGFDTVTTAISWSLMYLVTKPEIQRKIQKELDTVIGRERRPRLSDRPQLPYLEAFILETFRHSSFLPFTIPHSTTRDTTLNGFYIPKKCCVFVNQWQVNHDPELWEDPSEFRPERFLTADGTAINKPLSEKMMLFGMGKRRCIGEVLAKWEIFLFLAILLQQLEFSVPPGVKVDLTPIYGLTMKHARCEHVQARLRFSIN

[6] = target: T4, Rac GTPase-activating protein 1 (Homo sapiens, UniProt Q9H0H5); assay: MgcRacGAP GTPase-activating activity inhibitors, confirmation, biochemical, ADP Hunter fluorescence, primary and confirmatory (AID 624330); format: functional
T4 sequence (Q9H0H5 whole entry): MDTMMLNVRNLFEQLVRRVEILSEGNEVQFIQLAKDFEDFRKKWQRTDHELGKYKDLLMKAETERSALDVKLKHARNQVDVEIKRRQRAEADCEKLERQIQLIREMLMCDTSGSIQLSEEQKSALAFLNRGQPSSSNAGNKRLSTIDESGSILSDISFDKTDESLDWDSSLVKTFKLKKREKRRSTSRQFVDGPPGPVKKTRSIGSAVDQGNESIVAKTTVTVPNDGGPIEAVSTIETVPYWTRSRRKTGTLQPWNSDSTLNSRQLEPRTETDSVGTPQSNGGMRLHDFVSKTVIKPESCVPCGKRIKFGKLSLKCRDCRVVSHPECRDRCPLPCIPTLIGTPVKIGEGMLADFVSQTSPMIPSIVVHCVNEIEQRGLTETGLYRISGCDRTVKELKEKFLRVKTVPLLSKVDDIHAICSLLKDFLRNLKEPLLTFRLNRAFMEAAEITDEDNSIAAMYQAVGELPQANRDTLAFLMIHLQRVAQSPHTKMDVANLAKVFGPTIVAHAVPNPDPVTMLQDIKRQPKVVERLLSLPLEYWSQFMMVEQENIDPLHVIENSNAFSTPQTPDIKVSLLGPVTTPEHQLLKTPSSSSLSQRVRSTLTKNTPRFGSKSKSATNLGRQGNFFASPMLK

Streptococcus = assay: Group A Streptococcus viability loss, dose response, counter-screen for streptokinase expression inhibitor project, luminescence, BacTiterGlo (AID 1915); format: functional, organism-based; settings: Streptococcus;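 also: potency for reduction of bacterial viability or growth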
[7] = system: Streptococcus sp. 'group A'; assay: growth inhibition of control SK(-) GAS strain, dose response, counter-screen for streptokinase expression inhibitor project, luminescence, kanamycin, BacTiterGlo, confirmation (AID 1900); format: functional, organism-based; settings: Streptococcus sp. 'group A'
[8] = Luminescence Cell-Based Dose Retest to Confirm Inhibitors of Cancer Stem Cells. [Related pubchem assays (depositor defined):AID2717, AID2721]; format: functional, Homo sapiens; settings: Homo sapiens
Genome polyprotein = Genome polyprotein (dengue virus type 2, UniProt P29990); assay: Dengue-2 NS5 methyltransferase inhibitors, primary screen, biochemical, confirmation dose response (AID 588689); format: functional
Cytochrome P450 2D6 = Cytochrome P450 2D6 (Homo sapiens, UniProt P10635);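 also: CYP2D6 member of a cytochrome P450 panel assay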
cells = format: functional
[9] = Vero E6 cell cytotoxicity, dose response, cytotoxicity control for non-replicating M. tuberculosis project, secondary assay (AID 492998); format: functional, VeroE6; settings: Vero C1008
[10] = cytotoxicity toward NIH3T3 fibroblasts, dose response, counter-screen, cell-based, ATP luminescence, mouse fibroblasts (AID 2010); format: functional; settings: NIH3T3;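 also: cells exposed to compound for about 90 hours before reading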
[11] = THP-1 cell cytotoxicity, dose response, cytotoxicity control for non-replicating M. tuberculosis project (AID 489025); format: functional
[12] = inhibitors of intracellular T. cruzi replication, confirmation, NIH3T3 host cells, beta-gal luminescence (AID 2044); format: functional, cell-based;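 also: intracellular parasites grown in NIH/3T3 mouse fibroblasts as host cells; luminescent beta-galactosidase reporter signal from transgenic T. cruzi replicating inside host cells; inhibitors lower the luminescence signal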
[13] = target: Luciferin 4-monooxygenase (Photinus pyralis, UniProt P08659); assay: firefly luciferase enzyme inhibitors, dose response, biochemical, luminescence (AID 1891)
[14] = Luminescence Cell-Based Dose Confirmation HTS to Identify Inhibitors of Platelet Dense Granule Release. [Related pubchem assays: 1663 (Primary HTS), 1678 (Summary of Project)]; format: functional

Chain of Cytochrome P450 2C9 (P11712 whole entry): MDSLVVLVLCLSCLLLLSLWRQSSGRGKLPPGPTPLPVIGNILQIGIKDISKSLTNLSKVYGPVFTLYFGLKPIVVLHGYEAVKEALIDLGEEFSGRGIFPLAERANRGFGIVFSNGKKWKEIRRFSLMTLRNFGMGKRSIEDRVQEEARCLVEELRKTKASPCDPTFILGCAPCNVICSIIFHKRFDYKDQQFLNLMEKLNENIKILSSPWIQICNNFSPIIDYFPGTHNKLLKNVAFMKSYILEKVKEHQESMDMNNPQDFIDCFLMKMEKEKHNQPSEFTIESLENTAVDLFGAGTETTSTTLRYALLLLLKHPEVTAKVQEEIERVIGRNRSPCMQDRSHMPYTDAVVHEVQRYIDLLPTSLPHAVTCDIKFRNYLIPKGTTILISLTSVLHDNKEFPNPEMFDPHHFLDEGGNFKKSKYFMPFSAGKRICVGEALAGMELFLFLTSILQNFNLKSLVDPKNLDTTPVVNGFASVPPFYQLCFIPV
Chain of Cytochrome P450 2D6 (P10635 whole entry): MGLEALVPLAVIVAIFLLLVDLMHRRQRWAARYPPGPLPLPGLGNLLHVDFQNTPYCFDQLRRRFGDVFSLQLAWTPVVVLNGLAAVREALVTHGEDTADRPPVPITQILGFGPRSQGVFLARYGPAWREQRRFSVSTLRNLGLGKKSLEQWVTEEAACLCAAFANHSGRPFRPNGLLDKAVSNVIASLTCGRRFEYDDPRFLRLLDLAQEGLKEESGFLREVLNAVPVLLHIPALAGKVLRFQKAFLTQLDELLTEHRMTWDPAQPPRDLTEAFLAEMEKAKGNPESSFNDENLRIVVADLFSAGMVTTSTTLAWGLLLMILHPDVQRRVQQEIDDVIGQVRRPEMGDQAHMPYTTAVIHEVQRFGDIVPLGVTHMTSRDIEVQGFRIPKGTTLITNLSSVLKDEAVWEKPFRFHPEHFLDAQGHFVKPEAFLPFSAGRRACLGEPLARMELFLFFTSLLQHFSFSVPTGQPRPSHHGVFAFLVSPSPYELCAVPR
Chain of Genome polyprotein (P29990 2492-3391 limits assumed): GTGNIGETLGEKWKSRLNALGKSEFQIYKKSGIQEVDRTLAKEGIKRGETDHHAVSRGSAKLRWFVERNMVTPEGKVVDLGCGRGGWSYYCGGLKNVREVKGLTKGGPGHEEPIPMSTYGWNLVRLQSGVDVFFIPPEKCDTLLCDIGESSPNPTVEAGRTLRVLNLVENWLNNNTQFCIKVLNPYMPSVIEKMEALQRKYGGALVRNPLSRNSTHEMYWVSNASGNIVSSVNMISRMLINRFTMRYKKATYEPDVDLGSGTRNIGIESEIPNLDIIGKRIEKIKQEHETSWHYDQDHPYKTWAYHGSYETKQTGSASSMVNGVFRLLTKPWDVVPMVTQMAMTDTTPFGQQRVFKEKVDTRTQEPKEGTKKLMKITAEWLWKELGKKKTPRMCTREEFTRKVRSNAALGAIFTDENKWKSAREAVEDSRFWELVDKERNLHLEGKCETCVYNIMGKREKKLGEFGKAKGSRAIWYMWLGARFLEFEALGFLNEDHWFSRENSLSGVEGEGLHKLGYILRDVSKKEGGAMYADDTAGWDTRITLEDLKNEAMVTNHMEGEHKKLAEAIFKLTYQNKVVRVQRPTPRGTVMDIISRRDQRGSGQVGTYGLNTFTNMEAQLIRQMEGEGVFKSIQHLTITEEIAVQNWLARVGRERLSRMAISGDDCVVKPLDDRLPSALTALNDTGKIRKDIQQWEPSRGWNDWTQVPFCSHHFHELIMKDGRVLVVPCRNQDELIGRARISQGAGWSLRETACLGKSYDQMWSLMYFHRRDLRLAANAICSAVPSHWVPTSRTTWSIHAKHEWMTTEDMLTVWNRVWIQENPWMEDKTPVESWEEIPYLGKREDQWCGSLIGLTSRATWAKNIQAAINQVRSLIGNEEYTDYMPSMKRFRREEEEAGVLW
Chain of Luciferin 4-monooxygenase (P08659 whole entry): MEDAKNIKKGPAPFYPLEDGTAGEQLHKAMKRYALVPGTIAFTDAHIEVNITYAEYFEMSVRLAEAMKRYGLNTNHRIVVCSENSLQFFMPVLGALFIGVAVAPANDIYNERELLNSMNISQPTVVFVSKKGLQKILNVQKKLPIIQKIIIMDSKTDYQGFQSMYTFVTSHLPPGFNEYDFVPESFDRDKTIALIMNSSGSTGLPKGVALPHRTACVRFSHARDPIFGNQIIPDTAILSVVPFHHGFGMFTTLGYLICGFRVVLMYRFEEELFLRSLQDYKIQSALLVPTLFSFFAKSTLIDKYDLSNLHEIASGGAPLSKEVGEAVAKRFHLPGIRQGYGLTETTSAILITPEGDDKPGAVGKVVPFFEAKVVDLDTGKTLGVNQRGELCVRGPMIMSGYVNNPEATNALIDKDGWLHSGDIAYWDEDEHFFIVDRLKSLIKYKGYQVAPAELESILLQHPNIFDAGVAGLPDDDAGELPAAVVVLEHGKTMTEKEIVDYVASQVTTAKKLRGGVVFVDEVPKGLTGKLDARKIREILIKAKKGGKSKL

Compound: C(=N/NC1=NCCN1)/c1c2ccccc2c(/C=N\NC2=NCCN2)c2ccccc12
- GI50 (P388/ADR): 14.6 µM (inactive)
- GI50 (P388): 0.000861 µM (active)
- GI50 (SN12K1): 0.0284 µM (active)

Compound: COc1cccc2c1C(=O)c1c(O)c3c(c(O)c1C2=O)C[C@](O)(C(=O)CO)CC3OC1CC(N)C(OC2CCCCO2)C(C)O1 (some centres undefined)
- GI50 (P388/ADR): 3.14 µM (inactive)
- GI50 (P388): < 0.01 µM (active)
- GI50 (SN12K1): < 0.01 µM (active)

Compound: CCC1=CC2CN3CCc4c([nH]c5ccccc45)C(C(=O)OC)(C2)C13 (centres undefined)
- GI50 (P388/ADR): 30.1 µM (inactive)
- GI50 (P388): 21 µM (inactive)
- GI50 (SN12K1): 17.7 µM (inactive)

Compound: COc1ccccc1NC(=O)CNC(=O)CC12CC3CC(CC(C3)C1)C2
- IC50 [1]: > 20 µM (inactive)

Compound: NC1=NC(c2ccccc2)CC(c2cc(Cl)cc(Br)c2O)=N1 (centres undefined)
- GI50 (P388/ADR): 3.87 µM (inactive)
- GI50 (P388): 2.9 µM (inactive)
- GI50 (SN12K1): 13.6 µM (inactive)

Compound: O=c1[nH]c2ccc(Cl)cc2[nH]1
- IC50 [2]: > 47.1 µM (inactive)
- EC50 [3]: > 53 µM (inactive)

Compound: Nc1ncnc2c(C3OC(CO)C(O)C3O)n[nH]c12 (centres undefined)
- GI50 (P388/ADR): 5.6 µM (inactive)
- GI50 (P388): 10.2 µM (inactive)
- GI50 (SN12K1): 0.176 µM (active)

Compound: Cc1cccc(C)c1NC(=O)Cc1cccs1
- IC50 [2]: > 47.1 µM (inactive)
- EC50 [3]: > 53 µM (inactive)

Compound: O=C1NC2(CCCCC2)C(=O)N1CCN(CCCl)CCCl [SPIROMUSTINE]
- GI50 (P388/ADR): 29.6 µM (inactive)
- GI50 (P388): 30.2 µM (inactive)
- GI50 (SN12K1): 132 µM (inactive)

Compound: CC(Sc1nc(-c2ccccc2)cc(C(F)(F)F)n1)C(=O)Nc1ccc2c(c1)OCO2 (centres undefined)
- EC50 [4]: 24.6 µM (active)
- EC50 [5]: 19.3 µM (active)

Compound: O=C(O)Cc1cccc2c(=O)cc(-c3ccccc3)oc12 [MITOFLAXONE]
- GI50 (P388/ADR): > 79.3 µM (inactive)
- GI50 (P388): 93.8 µM (inactive)
- GI50 (SN12K1): > 250 µM (inactive)

Compound: NC(=O)NO [HYDROXYUREA]
- GI50 (P388/ADR): 59.3 µM (inactive)
- GI50 (P388): 69.8 µM (inactive)
- GI50 (SN12K1): 173 µM (inactive)

Compound: CN(C)CCCNC(=O)C[C@H]1C[C@H](C(=O)N2CCOCC2)[C@@]2(C)c3[nH]c4ccc(Cl)cc4c3CCN2C1=O
- IC50 [2]: > 47.1 µM (inactive)
- EC50 [3]: > 53 µM (inactive)

Compound: c1ccc(C[C@H]2CN=C(Nc3ccccc3)N2CCCC2CCCCC2)cc1
- IC50 [1]: > 20 µM (inactive)

Compound: c1csc(-c2nc3nc4ccccc4nc3n2Cc2ccc3c(c2)OCO3)c1
- EC50 [4]: 45.5 µM (active)
- EC50 [5]: 48.7 µM (active)

Compound: FC(F)(F)c1ccccc1-c1ccc2ncnc(NC3CCNCC3)c2c1
- AC50 (Cytochrome P450 2C9): inconclusive
- AC50 (Cytochrome P450 1A2): 20 µM (inconclusive)

Compound: CCc1ccc(NC(=O)CSc2nc3cc(C(=O)OC)ccc3c(=O)n2CC2CCCO2)cc1 (centres undefined)
- EC50 [4]: 25.2 µM (active)
- EC50 [5]: 27.4 µM (active)

Compound: CN1CCN(c2ccc(N)c(N3CCN(C)CC3)c2)CC1
- IC50 [6]: 33.3 µM (active)
- IC50 [1]: > 20 µM (inactive)

Compound: Clc1ccc2c(N/N=C/c3ccc(Br)cc3)ccnc2c1
- EC50 (Streptococcus): 3.89 µM (active)
- EC50 [7]: 2.54 µM (active)
- EC50 [4]: 9.32 µM (active)
- EC50 [5]: 15.5 µM (active)
- AC50 [8]: 3.79 µM (active)

Compound: O=C(O)CN1C(=O)/C(=C\c2cccc(OCc3ccc(Cl)cc3)c2)SC1=S
- IC50 (Genome polyprotein): 39.5 µM (active)

Compound: Cc1ncsc1C(=O)N1CCCC(C(=O)c2ccc3ccccc3c2)C1 (centres undefined)
- IC50 [2]: > 47.1 µM (inactive)
- EC50 [3]: > 53 µM (inactive)

Compound: CC(C)Cn1cc(C(=O)N2CCC(C)CC2)c2c3ccccc3n(C)c2c1=O
- IC50 [2]: > 47.1 µM (inactive)
- EC50 [3]: > 53 µM (inactive)

Compound: Cc1ccccc1CN1C(=O)C(O)(CC(=O)c2ccncc2)c2ccccc21 (centres undefined)
- EC50 [4]: 9.54 µM (active)
- EC50 [5]: 7.98 µM (active)

Compound: CNC(=O)c1ccccc1NC(=O)c1cccc(S(=O)(=O)N2CCC(C)CC2)c1
- IC50 [1]: > 20 µM (inactive)

Compound: CN(CC(=O)Nc1cccc2c1CCCC2)S(=O)(=O)c1ccc(Br)cc1
- AC50 (Cytochrome P450 2C9): inconclusive
- AC50 (Cytochrome P450 2D6): 3.16 µM (inconclusive)
- AC50 (Cytochrome P450 1A2): 10 µM (inconclusive)

Compound: Cc1ccn2c(NC3CCCC3)c(-c3ccccn3)nc2c1
- IC50 (cells): 4.71 µM (active)
- CC50 [9]: 10.1 µM (active)
- EC50 (Streptococcus): 13.3 µM (active)
- EC50 [10]: > 60 µM (not active)
- CC50 [11]: 17.5 µM (active)
- EC50 [7]: 3.14 µM (active)
- EC50 [12]: 2.06 µM (active)

Compound: C[C@H](NC(=O)c1[nH]cnc1C(=O)Nc1ccccc1)C(=O)OC(C)(C)C
- IC50 (cells): 8.07 µM (active)
- CC50 [9]: > 20 µM (active)
- CC50 [11]: > 40 µM (active)

Compound: CN(C(=O)Cn1nnc(-c2cccc(C(F)(F)F)c2)n1)C1CCCCC1
- AC50 (Cytochrome P450 2C9): inconclusive
- EC50 [13]: > 112 µM (not active)
- EC50 [14]: > 112 µM (not active)

Compound: COc1ccc(/C=C\c2cc(OC)c(OC)c(OC)c2)c(O)c1O [COMBRETASTATIN A-1]
- GI50 (P388/ADR): 0.139 µM (active)
- GI50 (P388): 0.0525 µM (active)
- GI50 (SN12K1): 0.05 µM (active)
